Assay results reported in ChEMBL document CHEMBL1201862, “PubChem BioAssay data set” (2004).
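96-well plates; 48 h exposure; 5 concentrations. Endpoints by linear interpolation between flanking doses. Not reached: highest tested concentration assigned. GI50 is the concentration that inhibits growth by half.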 Activity calls are given as the source filed them. Cut-off read from the data, not from the text of the source: active = GI50 up to about 1.1 µM and inactive = higher.

Legend:
Assay in all cases: NCI-60 cell line screen, 48 h
EKVX = system: EKVX
KM12 = system: KM12
SR = system: SR
DLD-1 = system: DLD-1
SF-268 = system: SF-268
SN12C = system: SN12C
HOP-18 = system: HOP-18
SK-MEL-5 = system: SK-MEL-5
OVCAR-8 = system: OVCAR-8
COLO 205 = system: COLO 205
RXF 393 = system: RXF 393
SNB-78 = system: SNB-78
UACC-257 = system: UACC-257
HCT-116 = system: HCT-116
LOX IMVI = system: LOX IMVI
HL-60 = system: HL-60
Malme-3M = system: Malme-3M
NCI-H226 = system: NCI-H226
HOP-62 = system: HOP-62
KM-20L2 = system: KM-20L2
NCI-H522 = system: NCI-H522
U-251 = system: U-251
RPMI-8226 = system: RPMI-8226
K562 = system: K562
CAKI-1 = system: CAKI-1
A498 = system: A498
RXF 631 = system: RXF 631
MOLT-4 = system: MOLT-4
UACC-62 = system: UACC-62
A549 = system: A549
SW-620 = system: SW-620
SNB-19 = system: SNB-19
TK-10 = system: TK-10
NCI-H23 = system: NCI-H23
NCI-H460 = system: NCI-H460
SF-295 = system: SF-295
SK-OV-3 = system: SK-OV-3
LXFL 529 = system: LXFL 529
SF-539 = system: SF-539
IGROV-1 = system: IGROV-1
HCC 2998 = system: HCC 2998
HT-29 = system: HT-29
DMS-273 = system: DMS-273
M19-MEL = system: M19-MEL
786-0 = system: 786-0
SK-MEL-28 = system: SK-MEL-28
OVCAR-5 = system: OVCAR-5
OVCAR-3 = system: OVCAR-3
OVCAR-4 = system: OVCAR-4
ACHN = system: ACHN
DMS-114 = system: DMS-114
M14 = system: M14
SNB-75 = system: SNB-75
HOP-92 = system: HOP-92
UO-31 = system: UO-31
XF498 = system: XF498
CCRF-CEM = system: CCRF-CEM
SK-MEL-2 = system: SK-MEL-2
HCT-15 = system: HCT-15

Nc1n/c(=N\c2ccccc2)ss1
GI50 (EKVX): > 100 µM (inactive)
GI50 (KM12): > 100 µM (inactive)
GI50 (SR): > 100 µM (inactive)
GI50 (DLD-1): > 100 µM (inactive)
GI50 (SF-268): > 100 µM (inactive)
GI50 (SN12C): > 100 µM (inactive)
GI50 (HOP-18): > 100 µM (inactive)
GI50 (SK-MEL-5): > 100 µM (inactive)
GI50 (OVCAR-8): > 100 µM (inactive)
GI50 (COLO 205): > 100 µM (inactive)
GI50 (RXF 393): > 100 µM (inactive)
GI50 (SNB-78): > 100 µM (inactive)
GI50 (UACC-257): > 100 µM (inactive)
GI50 (HCT-116): > 100 µM (inactive)
GI50 (LOX IMVI): 51.4 µM (inactive)
GI50 (HL-60): 19.9 µM (inactive)
GI50 (Malme-3M): > 100 µM (inactive)
GI50 (NCI-H226): > 100 µM (inactive)
GI50 (HOP-62): > 100 µM (inactive)
GI50 (KM-20L2): > 100 µM (inactive)
GI50 (NCI-H522): > 100 µM (inactive)
GI50 (U-251): > 100 µM (inactive)
GI50 (RPMI-8226): > 100 µM (inactive)
GI50 (K562): 78 µM (inactive)
GI50 (CAKI-1): > 100 µM (inactive)
GI50 (A498): > 100 µM (inactive)
GI50 (RXF 631): > 100 µM (inactive)
GI50 (MOLT-4): > 100 µM (inactive)
GI50 (UACC-62): > 100 µM (inactive)
GI50 (A549): > 100 µM (inactive)
GI50 (SW-620): > 100 µM (inactive)
GI50 (SNB-19): > 100 µM (inactive)
GI50 (TK-10): > 100 µM (inactive)
GI50 (NCI-H23): > 100 µM (inactive)
GI50 (NCI-H460): > 100 µM (inactive)
GI50 (SF-295): > 100 µM (inactive)
GI50 (SK-OV-3): > 100 µM (inactive)
GI50 (LXFL 529): > 100 µM (inactive)
GI50 (SF-539): > 100 µM (inactive)
GI50 (IGROV-1): > 100 µM (inactive)
GI50 (HCC 2998): > 100 µM (inactive)
GI50 (HT-29): > 100 µM (inactive)
GI50 (DMS-273): > 100 µM (inactive)
GI50 (M19-MEL): 99.5 µM (inactive)
GI50 (786-0): > 100 µM (inactive)
GI50 (SK-MEL-28): > 100 µM (inactive)
GI50 (OVCAR-5): > 100 µM (inactive)
GI50 (OVCAR-3): > 100 µM (inactive)
GI50 (OVCAR-4): > 100 µM (inactive)
GI50 (ACHN): > 100 µM (inactive)
GI50 (DMS-114): > 100 µM (inactive)
GI50 (M14): > 100 µM (inactive)
GI50 (SNB-75): > 100 µM (inactive)
GI50 (HOP-92): > 100 µM (inactive)
GI50 (UO-31): > 100 µM (inactive)
GI50 (XF498): > 100 µM (inactive)

O=C(c1cccc2ccccc12)N1CCC(C2CCN(C(=O)c3cccc4ccccc34)CC2)CC1
GI50 (CCRF-CEM): > 100 µM (inactive)
GI50 (EKVX): > 100 µM (inactive)
GI50 (KM12): > 100 µM (inactive)
GI50 (SR): > 100 µM (inactive)
GI50 (DLD-1): > 100 µM (inactive)
GI50 (SF-268): > 100 µM (inactive)
GI50 (SN12C): > 100 µM (inactive)
GI50 (HOP-18): > 100 µM (inactive)
GI50 (SK-MEL-5): > 100 µM (inactive)
GI50 (OVCAR-8): > 100 µM (inactive)
GI50 (COLO 205): > 100 µM (inactive)
GI50 (RXF 393): > 100 µM (inactive)
GI50 (SNB-78): 70.1 µM (inactive)
GI50 (UACC-257): > 100 µM (inactive)
GI50 (HCT-116): > 100 µM (inactive)
GI50 (SK-MEL-2): > 100 µM (inactive)
GI50 (LOX IMVI): > 100 µM (inactive)
GI50 (HL-60): 65.5 µM (inactive)
GI50 (HCT-15): > 100 µM
GI50 (Malme-3M): > 100 µM (inactive)
GI50 (NCI-H226): > 100 µM (inactive)
GI50 (HOP-62): > 100 µM (inactive)
GI50 (KM-20L2): > 100 µM (inactive)
GI50 (NCI-H522): > 100 µM (inactive)
GI50 (U-251): > 100 µM (inactive)
GI50 (RPMI-8226): 91.8 µM (inactive)
GI50 (K562): > 100 µM (inactive)
GI50 (CAKI-1): > 100 µM (inactive)
GI50 (A498): > 100 µM (inactive)
GI50 (RXF 631): > 100 µM (inactive)
GI50 (MOLT-4): > 100 µM (inactive)
GI50 (UACC-62): > 100 µM (inactive)
GI50 (A549): > 100 µM (inactive)
GI50 (SW-620): > 100 µM (inactive)
GI50 (TK-10): > 100 µM (inactive)
GI50 (NCI-H23): > 100 µM (inactive)
GI50 (NCI-H460): > 100 µM (inactive)
GI50 (SF-295): > 100 µM (inactive)
GI50 (SK-OV-3): > 100 µM (inactive)
GI50 (LXFL 529): > 100 µM (inactive)
GI50 (SF-539): > 100 µM (inactive)
GI50 (IGROV-1): > 100 µM (inactive)
GI50 (HT-29): > 100 µM (inactive)
GI50 (DMS-273): > 100 µM (inactive)
GI50 (M19-MEL): > 100 µM (inactive)
GI50 (786-0): > 100 µM (inactive)
GI50 (SK-MEL-28): > 100 µM (inactive)
GI50 (OVCAR-5): 99.1 µM (inactive)
GI50 (OVCAR-3): > 100 µM (inactive)
GI50 (ACHN): > 100 µM (inactive)
GI50 (DMS-114): > 100 µM (inactive)
GI50 (M14): > 100 µM (inactive)
GI50 (SNB-75): 23.8 µM (inactive)
GI50 (HOP-92): > 100 µM (inactive)
GI50 (UO-31): > 100 µM (inactive)
GI50 (XF498): 89.3 µM (inactive)

Cc1c2c(cc[n+]1C)O[B-](c1ccccc1)(c1ccccc1)O2
GI50 (CCRF-CEM): 35.9 µM (inactive)
GI50 (EKVX): 26.5 µM (inactive)
GI50 (KM12): 59.8 µM (inactive)
GI50 (DLD-1): 60 µM (inactive)
GI50 (SF-268): > 100 µM (inactive)
GI50 (SN12C): 51.8 µM (inactive)
GI50 (HOP-18): 58.6 µM (inactive)
GI50 (SK-MEL-5): 83.4 µM (inactive)
GI50 (OVCAR-8): 67.3 µM (inactive)
GI50 (COLO 205): 32.6 µM (inactive)
GI50 (RXF 393): 52.1 µM (inactive)
GI50 (SNB-78): 88.3 µM (inactive)
GI50 (UACC-257): 55.5 µM (inactive)
GI50 (HCT-116): 46.7 µM (inactive)
GI50 (SK-MEL-2): 91.2 µM (inactive)
GI50 (LOX IMVI): 51.2 µM (inactive)
GI50 (HL-60): 35.1 µM (inactive)
GI50 (HCT-15): 38.3 µM
GI50 (Malme-3M): 65.5 µM (inactive)
GI50 (NCI-H226): 48.6 µM (inactive)
GI50 (HOP-62): > 100 µM (inactive)
GI50 (KM-20L2): 71 µM (inactive)
GI50 (NCI-H522): 36.8 µM (inactive)
GI50 (U-251): 53.2 µM (inactive)
GI50 (RPMI-8226): 40.2 µM (inactive)
GI50 (K562): 46 µM (inactive)
GI50 (CAKI-1): 13.5 µM (inactive)
GI50 (A498): 64 µM (inactive)
GI50 (RXF 631): 67.6 µM (inactive)
GI50 (MOLT-4): 35.5 µM (inactive)
GI50 (UACC-62): 16.3 µM (inactive)
GI50 (A549): 84.5 µM (inactive)
GI50 (SW-620): 26.8 µM (inactive)
GI50 (TK-10): 55.2 µM (inactive)
GI50 (NCI-H23): > 100 µM (inactive)
GI50 (NCI-H460): 50 µM (inactive)
GI50 (SF-295): 53.6 µM (inactive)
GI50 (SK-OV-3): 94 µM (inactive)
GI50 (LXFL 529): 42.9 µM (inactive)
GI50 (SF-539): 95.9 µM (inactive)
GI50 (IGROV-1): 90.6 µM (inactive)
GI50 (HCC 2998): 27.8 µM (inactive)
GI50 (HT-29): > 100 µM (inactive)
GI50 (DMS-273): 36.5 µM (inactive)
GI50 (M19-MEL): 49.1 µM (inactive)
GI50 (786-0): 71.9 µM (inactive)
GI50 (OVCAR-5): 87.3 µM (inactive)
GI50 (OVCAR-3): 43.7 µM (inactive)
GI50 (OVCAR-4): 64.4 µM (inactive)
GI50 (ACHN): 35.9 µM (inactive)
GI50 (DMS-114): 61.1 µM (inactive)
GI50 (M14): 41.5 µM (inactive)
GI50 (SNB-75): 22.3 µM (inactive)
GI50 (UO-31): 33.7 µM (inactive)
GI50 (XF498): 35 µM (inactive)
